The test system of experiment [1] is urinary bladder. The experiment in a line: Cystometric parameters in conscious rats after oral administration. In kind it is in vivo, rat. The following applies: 3 mg/kg p.o., 1-5 h after treatment. The method, then: Male Sprague-Dawley rats [Crl: CD® (SD) IGS BR] of 300-400 g body weight supplied by Charles River Italia were used. The animals were housed with free access to food and water and maintained on a forced 12-hour-light/12-hour-dark cycle at 22-24° C. of temperature, except during the experiment. To quantify urodynamic parameters in conscious rats, cystometrographic studies were performed according to the procedure previously reported (Guarneri et al., Pharmacol. Res. 24: 175, 1991).
Briefly, the rats were anaesthetised by intraperitoneal administration of 3 ml/kg of Equithensin solution (pentobarbital 30 mg/kg and chloral hydrate 125 mg/kg) and placed in a supine position. An approximately 10 mm-long midline incision was made in the shaved and cleaned abdominal wall. The urinary bladder was gently freed from adhering tissues, emptied and then cannulated via an incision in the bladder body, using a polyethylene cannula (0.58-mm internal diameter, 0.96-mm external diameter) which was permanently sutured with silk thread. The cannula was exteriorised through a subcutaneous tunnel in the retroscapular area, where it was connected to a plastic adapter in order to avoid the risk of removal by the animal. For drug testing, the rats were utilised one day after implantation.
On the day of the experiment, the rats were placed in modified Bollman cages, i.e., restraining cages that were large enough to permit the rats to adopt a normal crouched posture, but narrow enough to prevent turning around. After a stabilisation period of about 20 minutes, the free tip of the bladder cannula was connected through a T-shaped tube to a pressure transducer (Statham P23XL) and to a peristaltic pump (Gilson minipuls 2) for continues infusion of a warm (37° C.) saline solution into the urinary bladder, at a constant rate of 0.1 ml/minute. The intraluminal-pressure signal during infusion of saline into the bladder was continuously recorded on a polygraph (Rectigraph-8K San-ei with BM614/2 amplifier from Biomedica Mangoni). The cystometrogram was used to evaluate the urodynamic parameters of bladder volume capacity (BVC) and micturition pressure (MP). BVC (ml) is defined as the volume of saline infused into the bladder necessary to induce detrusor contraction followed by micturition. MP (mmHg) is defined as the maximal intravesical pressure caused by contraction during micturition. Basal BVC and MP values were evaluated as mean of the values observed in the cystometrograms recorded in an initial period of 30-60 minutes. Following determination of basal BVC and MP, the infusion was interrupted and the test compounds were administered orally by a stomach tube. Bladder infusion was resumed and changes in BVC and MP were evaluated from the mean values obtained in the cystometrograms observed during 1, 2, 3, 4 and 5 hours after treatment. Compounds were administered in a volume of 2 ml/kg and groups of control animals received the same amount of vehicle (0.5% methocel in water) orally.
Data were expressed as mean ±standard error. The percent changes of BVC and MP versus the basal values, as well as Δ values (difference in ml or mmHg) of BVC and MP (BVC or MP at time “x” minus basal value), were also evaluated for each rat/time. In the figures, data were reported as % changes versus basal values.
Statistical analysis on BVC and MP values, as well as on Δ values, was performed by S.A.S./STAT software, version 6.12. The observed differences between vehicle (control) and test treatments were evaluated on Δ values of BVC and MP, whereas the differences between the values at different times versus basal values were analyzed on original BVC and MP data.

For experiment [2], the system named is rhythmic bladder-voiding contractions. The experiment in a line: Rhythmic bladder-voiding contractions induced by bladder filling in anaesthetised rats. The note with it: intravenous administration. In kind it is in vivo, rat. The method, then: Female Sprague-Dawley rats weighing 225-275 g (Crl: CD® (SD) IGS BR, Charles River Italia) were used. The animals were housed with free access to food and water and maintained on a forced 12-hour alternating light-dark cycle at 22-24° C. for at least one week, except during the experiment. The activity on rhythmic bladder voiding contractions was evaluated according to the method of Dray (Dray J., Pharmacol. Methods, 13:157, 1985), with some modifications as in Guarneri (Guarneri, Pharmacol. Res. 27:173, 1993). Briefly, the rats were anaesthetised by subcutaneous injection of 1.25 g/kg (5 ml/kg) urethane, after which the urinary bladder was catheterised via the urethra using PE 50 polyethylene tubing filled with physiological saline. The catheter was tied in place with a ligature around the external urethral orifice and was connected to conventional pressure transducers (Statham P23 ID/P23 XL). […] The bladder was then filled via the recording catheter by incremental volumes of warm (37° C.) saline until reflex bladder-voiding contractions occurred (usually 0.8-1.5 ml). For intravenous injection of bioactive compounds, PE 50 polyethylene tubing filled with physiological saline was inserted into the jugular vein.
From the cystometrogram, the number of contractions recorded 15 minutes before (basal values) and after treatment, as well as the mean amplitude of these contractions (mean height of the peaks in mmHg), was evaluated.
Since most compounds produced an effect that was relatively rapid in onset and led to a complete cessation of bladder contractions, bioactivity was conveniently estimated by measuring the duration of bladder quiescence (i.e., the time during which no contractions occurred). The number of tested animals showing a reduction in the number of contractions higher than 30% of that observed in the basal period was recorded too.
The extrapolated doses which induced a reduction in the number of contractions greater than 30% in 50% of the treated rats (ED50) were also evaluated by the method of Bliss (Bliss C. I., Quart J. Pharm. Pharmacol. 11, 192-216, 1938).

For the compound `COc1ccccc1N1CCN(CCC(c2ccccc2F)C(C2CCCCC2)N(C)C(C)=O)CC1` (racemic) [Example 16, (RS,SR)- and (RS,RS)-N-{-1-Cyclohexyl-2-(2-fluorophenyl)-4-[4-(2-methoxyphenyl)piperazin-1-yl]butyl}-N-methylacetamide], in experiment [1], the “bladder volume capacity (BVC)” value is listed as “effective in increasing” and the “micturition pressure (MP)” value is “without significant effects”. Besides, in experiment [2], the “ED50 (frequency) (extrapolated dose inducing a reduction of the number of contractions >30% in 50% of treated rats)” value is 0.031 mg/kg and the “ED10 min (extrapolated dose inducing 10 minutes of disappearance of the contractions)” value was 0.072 mg/kg.

Take `COc1ccccc1N1CCN(CC[C@@H](c2ccccc2F)[C@H](NC(=S)N(C)C)C2CCCCC2)CC1` (racemic) [Example 24, 3-{(RS,SR)-1-Cyclohexyl-2-(2-fluorophenyl)-4-[4-(2-methoxyphenyl)-piperazin-1-yl]butyl}-1,1-dimethylthiourea]: in experiment [1], the “bladder volume capacity (BVC)” value is “significantly increased” and the “micturition pressure (MP)” value is “slight but significant reduction”.

(Values after patent publication US20070270436A1, “NOVEL AMINO- AND IMINO-ALKYLPIPERAZINES” (Recordati Ireland Limited, priority 2006, published 2007).)
